Experimental data reported in paper PMC7995829 (ACS chemical biology, 2020).
Where two headings read alike, the source gives them in different places.

Legend:
BglX [1] = biological target: T1, BglX (Pseudomonas aeruginosa, UniProt Q9I311); assay: inhibition assay; type: biochemical
BglX [2] = biological target: T1, BglX; assay: inhibition assay; type: biochemical; details: nonsubstrate, weak inhibitor

With `OC[C@H]1NC[C@H](O)[C@@H](O)[C@@H]1O` [NOJ, 1-deoxynojirimycin] as the compound, how does the Ki (BglX [1]) read?
The Ki was 4.4 ± 0.5 mM.

With `OC[C@H]1O[C@@H](O[C@H]2[C@H](O)[C@@H](O)C(O)O[C@@H]2CO)[C@H](O)[C@@H](O)[C@@H]1O` (stereo partly shown) [cellobiose] as the compound, how does the Ki (BglX [2]) read?
Its Ki is > 50 mM.

For `OC[C@H]1O[C@@H](O[C@H]2[C@H](O)[C@@H](O)C(O)O[C@@H]2CO)[C@H](O)[C@@H](O)[C@H]1O` (stereo partly shown) [lactose], which Ki (BglX [2]) is on record?
Its Ki is > 50 mM.

For `OC1OC[C@@H](O[C@@H]2OC[C@@H](O[C@@H]3OC[C@@H](O)[C@H](O)[C@H]3O)[C@H](O)[C@H]2O)[C@H](O)[C@H]1O` (stereo partly shown) [xylotriose], which Ki (BglX [2]) is on record?
The Ki was > 50 mM.
